According to patent publication US20130273092A1 (priority 2010, published 2013):

Legend:
Format in all cases: cell-based, C57BL/6 mice
CD8 cells = tested on: CD8 cells
Vb6-CD8 clone = tested on: Vb6-CD8 clone
Vb6+ CD8 clone = tested on: Vb6+ CD8 clone

| Substance | TNF-α and IFN-γ expression (CD8 cells) | response pattern (IFN-γ and proliferation) (Vb6-CD8 clone) | IFN-γ by ELISA (Vb6+ CD8 clone) | proliferation (3H-thymidine incorporation, stimulation index) (Vb6+ CD8 clone) |
| --- | --- | --- | --- | --- |
| H-SVIGFIQRM-OH [SEQ ID NO: 3] | stimulated TNF-α and IFN-γ expression from nearly as many CD8 cells as did the polyclonal stimulus anti-CD3 |  |  |  |
| H-VAHSVIGFIQRMFSE-OH [YopE peptide number 14] |  | identical response pattern | specifically produced IFN-γ | proliferated |
